From patent US11459325B2, “Heterocyclic compound” (Takeda Pharmaceutical Company Limited, priority 2018, dated 2022)

System: GBA mutant human fibroblasts GM008760
Test: Glucosylceramide lowering assay
Type: cell-based
Conditions: Homo sapiens, Fibroblast, 96 h; 10 μM test compound, 4 days culture; GlcCer (C16:0)/Cer (C16:0) molar ratio of test compound group relative to DMSO control group x100; smaller value = glucosylceramide lowering
Procedure: Glucosylceramide Lowering Assay
Using GBA mutant human fibroblasts containing mutated glucosylceramidase, the effect of test compounds on glucosylceramide reduction was evaluated.
GBA mutant human fibroblasts GM008760 (Coriel Institute) were seeded in a 96-well multiwell plate at a density of 5,000 cells/100 μL culture solution/well. GlutaMAX (Thermo Fishcer Scientific), penicillin-streptomycin, and Minimum Essential Media (Thermo Fishcer Scientific) supplemented with 15% fetal bovine serum were used as a culture solution. After culturing for 2 days, a 10 mM DMSO solution of the test compound diluted with the culture solution was added to a 96-well plate by 100 μL to adjust a final test compound concentration to 10 μM. After culturing the cells for 4 days in the presence of the test compound, the culture solution was removed, and the cells adhered to the 96-well plate were washed with a phosphate buffer (ThermoFisher Scientific, product number 14190-144). A solvent composed of 50% ethanol and 50% isopropanol was added to the 96-well plate by 100 μL, and the intracellular lipids were dissolved by pipetting. A solution prepared by dissolving N-Octadecanoyl-D35-psychosine (50 ng/mL, Matreya LLC Inc.) as an internal standard in 50% ethanol and 50% isopropanol was added to the sample in an equal volume, and 2.5 μL of the centrifuged supernatant was used as the test compound group.
In the same manner as above, a control group was prepared by using DMSO instead of the 10 mM DMSO solution of the test compound.
For the test compound group and the control group, molar concentrations of glucosylceramide [GlcCer (C16:0)] and ceramide [Cer (C16:0)] were quantified using Rapidfire-MS/MS (API-5000, Turbo-ESI, SRM), and the glucosylceramide lowering effect of the test compound group relative to the control group was evaluated by the following formula. (GlcCer/Cer of test compound group)/(GlcCer/Cer of control group)×100 wherein GlcCer/Cer is the ratio of the molar concentration of glucosylceramide to that of ceramide.
In this test, when the numerical value obtained by the above calculation formula is small, glucosylceramide is metabolized to ceramide by the test compound, or the synthesis of glucosylceramide from ceramide is inhibited by the test compound, that is, it can be said that the test compound has a glucosylceramide lowering effect.

Compared with `COc1ccccc1-n1cc(C)c2c(c(C(=O)NC3CCCCC3)cn2C)c1=O` [Example 107, N-cyclohexyl-5-(2-methoxyphenyl)-1,7-dimethyl-4-oxo-4,5-dihydro-1H-pyrrolo[3,2-c]pyridine-3-carboxamide], `COc1ccccc1-n1cc(C)c2c(c(C(=O)Nc3ccccc3)cn2C)c1=O` [Example 108, 5-(2-methoxyphenyl)-1,7-dimethyl-4-oxo-N-phenyl-4,5-dihydro-1H-pyrrolo[3,2-c]pyridine-3-carboxamide] is higher in activity at 10 µM: 50% for the first, 67% for the second.

First: Cc1cn(C)c(=O)c2c(C(=O)N3CC4CC4(c4cccc(Cl)c4)C3)cn(C)c12 (centres unmarked) [Example 118, 3-((1-(3-chlorophenyl)-3-azabicyclo[3.1.0]hex-3-yl)carbonyl)-1,5,7-trimethyl-1,5-dihydro-4H-pyrrolo[3,2-c]pyridin-4-one]
Second: Cc1cn(C)c(=O)c2c(C(=O)N3CC4CC4(c4ccc(Cl)c(Cl)c4)C3)cn(C)c12 (centres unmarked) [Example 120, 3-((1-(3,4-dichlorophenyl)-3-azabicyclo[3.1.0]hex-3-yl)carbonyl)-1,5,7-trimethyl-1,5-dihydro-4H-pyrrolo[3,2-c]pyridin-4-one]
The activity at 10 µM of the first is higher: 59% for the first, 50% for the second.

Compared with `Cc1cn(C)c(=O)c2c(C(=O)N3CC4CC4(c4cccc(Cl)c4Cl)C3)cn(C)c12` (centres unmarked) [Example 121, 3-((1-(2,3-dichlorophenyl)-3-azabicyclo[3.1.0]hex-3-yl)carbonyl)-1,5,7-trimethyl-1,5-dihydro-4H-pyrrolo[3,2-c]pyridin-4-one], `Cc1cn(C)c(=O)c2c(C(=O)N3CC4CC4(c4cc(Cl)ccc4Cl)C3)cn(C)c12` (centres unmarked) [Example 123, 3-((1-(2,5-dichlorophenyl)-3-azabicyclo[3.1.0]hex-3-yl)carbonyl)-1,5,7-trimethyl-1,5-dihydro-4H-pyrrolo[3,2-c]pyridin-4-one] is lower in activity at 10 µM: 68% for the first, 47% for the second.

Compared with `Cc1cn(C)c(=O)c2c(C(=O)N3CC4CC4(c4cc(Cl)cc(Cl)c4)C3)cn(C)c12` (centres unmarked) [Example 122, 3-((1-(3,5-dichlorophenyl)-3-azabicyclo[3.1.0]hex-3-yl)carbonyl)-1,5,7-trimethyl-1,5-dihydro-4H-pyrrolo[3,2-c]pyridin-4-one], `Cc1cn(C)c(=O)c2c(C(=O)N3CC4CC4(c4cc(Cl)cc(C(F)(F)F)c4)C3)cn(C)c12` (centres unmarked) [Example 140, 3-((1-(3-chloro-5-(trifluoromethyl)phenyl)-3-azabicyclo[3.1.0]hex-3-yl)carbonyl)-1,5,7-trimethyl-1,5-dihydro-4H-pyrrolo[3,2-c]pyridin-4-one] is lower in activity at 10 µM: 54% for the first, 49% for the second.

First: Cc1cn(C)c(=O)c2c(C(=O)N3CC4CC4(c4ccc(F)cc4)C3)cn(C)c12 (centres unmarked) [Example 124, 3-((1-(4-fluorophenyl)-3-azabicyclo[3.1.0]hex-3-yl)carbonyl)-1,5,7-trimethyl-1,5-dihydro-4H-pyrrolo[3,2-c]pyridin-4-one]
Second: COc1ccc(C23CC2CN(C(=O)c2cn(C)c4c(C)cn(C)c(=O)c24)C3)cc1 (centres unmarked) [Example 127, 3-((1-(4-methoxyphenyl)-3-azabicyclo[3.1.0]hex-3-yl)carbonyl)-1,5,7-trimethyl-1,5-dihydro-4H-pyrrolo[3,2-c]pyridin-4-one]
The activity at 10 µM of the first is lower: 56% for the first, 65% for the second.

Compared with `Cc1cn(C)c(=O)c2c(C(=O)N3CC4CC4(c4ccccc4F)C3)cn(C)c12` (centres unmarked) [Example 126, 3-((1-(2-fluorophenyl)-3-azabicyclo[3.1.0]hex-3-yl)carbonyl)-1,5,7-trimethyl-1,5-dihydro-4H-pyrrolo[3,2-c]pyridin-4-one], `Cc1cn(C)c(=O)c2c(C(=O)N3CC4CC4(c4ccccc4C(F)(F)F)C3)cn(C)c12` (centres unmarked) [Example 137, 1,5,7-trimethyl-3-((1-(2-(trifluoromethyl)phenyl)-3-azabicyclo[3.1.0]hex-3-yl)carbonyl)-1,5-dihydro-4H-pyrrolo[3,2-c]pyridin-4-one] is higher in activity at 10 µM: 61% for the first, 64% for the second.

First: Cc1cn(C)c(=O)c2c(C(=O)N3CC4CC4(c4ccc(OC(F)(F)F)cc4)C3)cn(C)c12 (centres unmarked) [Example 130, 1,5,7-trimethyl-3-((1-(4-(trifluoromethoxy)phenyl)-3-azabicyclo[3.1.0]hex-3-yl)carbonyl)-1,5-dihydro-4H-pyrrolo[3,2-c]pyridin-4-one]
Second: Cc1cn(C)c(=O)c2c(C(=O)N3CC4CC4(c4cccc(OC(F)(F)F)c4)C3)cn(C)c12 (centres unmarked) [Example 131, 1,5,7-trimethyl-3-((1-(3-(trifluoromethoxy)phenyl)-3-azabicyclo[3.1.0]hex-3-yl)carbonyl)-1,5-dihydro-4H-pyrrolo[3,2-c]pyridin-4-one]
The activity at 10 µM of the first is lower: 21% for the first, 63% for the second.

First: Cc1cn(C)c(=O)c2c(C(=O)N3CC4CC4(c4ccc(C(F)(F)F)c(F)c4)C3)cn(C)c12 (centres unmarked) [Example 138, 3-((1-(3-fluoro-4-(trifluoromethyl)phenyl)-3-azabicyclo[3.1.0]hex-3-yl)carbonyl)-1,5,7-trimethyl-1,5-dihydro-4H-pyrrolo[3,2-c]pyridin-4-one]
Second: Cc1cn(C)c(=O)c2c(C(=O)N3CC4CC4(c4ccc(Cl)c(C(F)(F)F)c4)C3)cn(C)c12 (centres unmarked) [Example 141, 3-((1-(4-chloro-3-(trifluoromethyl)phenyl)-3-azabicyclo[3.1.0]hex-3-yl)carbonyl)-1,5,7-trimethyl-1,5-dihydro-4H-pyrrolo[3,2-c]pyridin-4-one]
The activity at 10 µM of the first is lower: 39% for the first, 47% for the second.

First: Cc1cn(C)c(=O)c2c(C(=O)N3CC4CC4(c4ccc(OC(F)(F)F)c(F)c4)C3)cn(C)c12 (centres unmarked) [Example 139, 3-((1-(3-fluoro-4-(trifluoromethoxy)phenyl)-3-azabicyclo[3.1.0]hex-3-yl)carbonyl)-1,5,7-trimethyl-1,5-dihydro-4H-pyrrolo[3,2-c]pyridin-4-one]
Second: Cc1cn(C)c(=O)c2c(C(=O)N3CC4CC4(c4ccccc4OC(F)(F)F)C3)cn(C)c12 (centres unmarked) [Example 151, 1,5,7-trimethyl-3-((1-(2-(trifluoromethoxy)phenyl)-3-azabicyclo[3.1.0]hex-3-yl)carbonyl)-1,5-dihydro-4H-pyrrolo[3,2-c]pyridin-4-one]
The activity at 10 µM of the first is lower: 37% for the first, 46% for the second.

Going from `Cc1ccc(C23CN(C(=O)c4cn(C)c5c(C)cn(C)c(=O)c45)CC2C3(F)F)cc1` (centres unmarked) [Example 146, 3-((6,6-difluoro-1-(4-methylphenyl)-3-azabicyclo[3.1.0]hex-3-yl)carbonyl)-1,5,7-trimethyl-1,5-dihydro-4H-pyrrolo[3,2-c]pyridin-4-one] to `Cc1cn(C)c(=O)c2c(C(=O)N3CCC4(c5ccc(Cl)cc5)C(C3)C4(F)F)cn(C)c12` (centres unmarked) [Example 153, 3-((6-(4-chlorophenyl)-7,7-difluoro-3-azabicyclo[4.1.0]hept-3-yl)carbonyl)-1,5,7-trimethyl-1,5-dihydro-4H-pyrrolo[3,2-c]pyridin-4-one], the activity at 10 µM falls from 65% to 60%.

Compared with `Cc1cn(C)c(=O)c2c(C(=O)N3CCC4(c5cccc(Cl)c5)C(C3)C4(F)F)cn(C)c12` (centres unmarked) [Example 155, 3-((6-(3-chlorophenyl)-7,7-difluoro-3-azabicyclo[4.1.0]hept-3-yl)carbonyl)-1,5,7-trimethyl-1,5-dihydro-4H-pyrrolo[3,2-c]pyridin-4-one], `Cc1cn(C)c(=O)c2c(C(=O)N3CCC(F)(c4ccc(Cl)cc4)C3)cn(C)c12` (centres unmarked) [Example 168, 3-((3-(4-chlorophenyl)-3-fluoropyrrolidin-1-yl)carbonyl)-1,5,7-trimethyl-1,5-dihydro-4H-pyrrolo[3,2-c]pyridin-4-one] is lower in activity at 10 µM: 53% for the first, 40% for the second.

Going from `Cc1cn(C)c(=O)c2c(C(=O)N3CCC(Oc4cccc(C(F)(F)F)c4)CC3)cn(C)c12` [Example 176, 1,5,7-trimethyl-3-((4-(3-(trifluoromethyl)phenoxy)piperidin-1-yl)carbonyl)-1,5-dihydro-4H-pyrrolo[3,2-c]pyridin-4-one] to `Cc1cn(C)c(=O)c2c(C(=O)N3CCC(Oc4cccc(Cl)c4)CC3)cn(C)c12` [Example 188, 3-((4-(3-chlorophenoxy)piperidin-1-yl)carbonyl)-1,5,7-trimethyl-1,5-dihydro-4H-pyrrolo[3,2-c]pyridin-4-one], the activity at 10 µM rises from 56% to 65%.

Going from `Cc1cn(C)c(=O)c2c(C(=O)N3CCC(Oc4ccc(Cl)c(Cl)c4)CC3)cn(C)c12` [Example 178, 3-((4-(3,4-dichlorophenoxy)piperidin-1-yl)carbonyl)-1,5,7-trimethyl-1,5-dihydro-4H-pyrrolo[3,2-c]pyridin-4-one] to `Cc1cn(C)c(=O)c2c(C(=O)N3CCC(Oc4ccc(Cl)cc4)CC3)cn(C)c12` [Example 189, 3-((4-(4-chlorophenoxy)piperidin-1-yl)carbonyl)-1,5,7-trimethyl-1,5-dihydro-4H-pyrrolo[3,2-c]pyridin-4-one], the activity at 10 µM falls from 42% to 36%.
